Experiments:
[1] = system: NuRD complex members (MBD2, MBD3, GATAD2B); assay: Cysteine reactivity profiles of NuRD complex members in treated T cells; type: binding, human; conditions: 3 h treatment
Description: (§1) FIG. 7B is a scatter plot representation of protein abundance changes caused by BPK-25 (10 μM, 24 h) in two independent replicate experiments, with decreases in NuRD complex components highlighted in red. FIG. 7C is a heatmap of top proteins with decreased abundance in BPK-25-treated T cells showing that the subset of these proteins in the NuRD complex (asterisks) were largely unaltered by other active compounds and blocked in their degradation by co-treatment with the proteasome inhibitor MG132. […] FIG. 7E is a bar graph […] showing time-dependent reductions in NuRD complex members in human T cells treated with BPK-25 (10 μM). Left, representative western blots. Right, quantification of changes in protein. […]
(§2) At individual TMT experiment level, the following filters were applied to remove low-quality peptides: removal of non-unique peptides; removal of half-tryptic peptides; removal of peptides with more than one internal miscleaved site; removal of peptides with low (<10,000) sum of reporter ion intensities for control channels, and peptides with high variation between the replicate control channels (coefficient of variance >0.5). R values (compound-treated vs. DMSO-treated) for each peptide entry were calculated using the reporter ion intensities of DMSO and compound treated TMT channels for each treatment group with a maximum ratio cap of 20. […]

[2] = system: NuRD complex member mRNA; assay: mRNA expression of NuRD complex members (RNAseq); type: cell-based, human
Description: FIG. 7B is a scatter plot representation of protein abundance changes caused by BPK-25 (10 μM, 24 h) in two independent replicate experiments, with decreases in NuRD complex components highlighted in red. FIG. 7C is a heatmap of top proteins with decreased abundance in BPK-25-treated T cells showing that the subset of these proteins in the NuRD complex (asterisks) were largely unaltered by other active compounds and blocked in their degradation by co-treatment with the proteasome inhibitor MG132. […] FIG. 7E is a bar graph […] showing time-dependent reductions in NuRD complex members in human T cells treated with BPK-25 (10 μM). Left, representative western blots. Right, quantification of changes in protein. […] FIG. 7G is a heat map showing the changes in cysteine reactivity for NuRD complex members in human T cells treated with BPK-25 and other active compounds. […]
RNA quality was assessed using TapeStation 4200 and RNA-Seq libraries were prepared using the TruSeq stranded mRNA Sample Preparation Kit v2 according to Illumina protocols. Multiplexed libraries were validated using TapeStation 4200, normalized, pooled and quantified by qPCR for sequencing. […]
Sequenced reads were quality-tested using FASTQC Andrews S. (2010). […] Mapping was carried out using default parameters (up to 10 mismatches per read, and up to 9 multi-mapping locations per read). […]

[3] = system: NuRD complex; assay: Western blot of NuRD complex members in T cells; type: cell-based, human; conditions: BPK-25 10 μM
Description: as §1
BPK-25 (10 μM) treated expanded T cells were washed with PBS before permeabilization by rotation at 4° C. for 10 min with cytoplasm lysis buffer (10 mM sodium phosphate pH 7.4, 25 mM KCl, 1.5 mM MgCl2, 10% glycerol, and 0.025% NP40 supplemented with 1×HALT protease inhibitor cocktail (Thermo Scientific)). […] Insoluble material was precipitated by centrifugation (12,000 g, […]) and the protein concentration of nuclear extracts was measured using standard BCA assay (Thermo Scientific) and normalized. […] Blots were imaged using fluorescence-labeled secondary antibodies (LI-COR) on the Odyssey CLx Imager.

[4] = target: T1, NuRD complex members (MBD2, MBD3, GATAD2B) (Homo sapiens, UniProt Q8WXI9); assay: Cysteine reactivity profiles of NuRD complex members in treated T cells; type: binding
T1 construct: endogenous in cells; host or cells: primary human T cells, 3 h treatment
Description: as §1, §2

T1 sequence (Q8WXI9 whole entry, one chain of several): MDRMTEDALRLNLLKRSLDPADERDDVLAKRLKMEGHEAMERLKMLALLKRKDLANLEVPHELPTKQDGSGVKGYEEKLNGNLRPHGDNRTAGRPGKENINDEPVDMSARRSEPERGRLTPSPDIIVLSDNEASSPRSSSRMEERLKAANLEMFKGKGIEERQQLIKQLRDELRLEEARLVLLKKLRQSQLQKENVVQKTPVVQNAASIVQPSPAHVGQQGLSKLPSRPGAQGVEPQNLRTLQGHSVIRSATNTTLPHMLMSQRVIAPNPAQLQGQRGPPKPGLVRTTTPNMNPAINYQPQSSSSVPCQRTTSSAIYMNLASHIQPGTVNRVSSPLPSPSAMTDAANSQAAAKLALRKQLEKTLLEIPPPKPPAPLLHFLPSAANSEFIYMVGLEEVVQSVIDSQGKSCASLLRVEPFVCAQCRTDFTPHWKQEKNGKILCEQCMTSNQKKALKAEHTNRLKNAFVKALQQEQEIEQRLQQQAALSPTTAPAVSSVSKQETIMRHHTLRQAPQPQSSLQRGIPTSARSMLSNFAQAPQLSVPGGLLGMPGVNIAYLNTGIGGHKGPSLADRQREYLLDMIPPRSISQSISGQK

Row | Structure (SMILES) | reduction in C10/11 and C359 in MBD2, C266 in MBD3, and C308 of GATAD2B (cysteine reactivity profiles) [1] [%] | mRNA expression for NuRD complex members [2] | time of initial changes in NuRD complex proteins [3] [h] | time of maximal effects on NuRD complex proteins [3] [h] | apparent reactivity of C308 of GATAD2B [4]
1 | C=CC(=O)N(Cc1cccc(Cl)n1)c1ccc(C(=O)Nc2ccccc2)nc1 [BPK-25] | ~50 | not accompanied by corresponding changes in mRNA expression | 6 | 24 | 
2 | COC(=O)/C=C/C(=O)OC [DMF, reference compound] |  |  |  |  | decreased the apparent reactivity

From patent publication US20240131032A1, “AN ACTIVITY-GUIDED MAP OF ELECTROPHILE-CYSTEINE INTERACTIONS IN PRIMARY HUMAN IMMUNE CELLS” (The Scripps Research Institute, priority 2019, published 2024)
